Measured values: patent publication US9567329B2, “High penetration prodrug compositions of 1H-imidazo[4,5-c]quinolin-4-amines and 1H-imidazo[4,5-c]quinolin-4-amine-related compounds and uses thereof” (Techfields Pharma Co., Ltd, priority 2007, dated 2017)

Key:
[1] = In vitro penetration rate across human skin in modified Franz cells; format: in vitro ADME; settings: 3% solution in ethanol/pH 7.4 phosphate buffer (0.2 M) 70/30
Experimental: Penetration rates of HPPs and their parent drugs through human skin were measured in vitro by modified Franz cells. A Franz cell had two chambers, the top sample chamber and the bottom receiving chamber. The human skin tissue (360-400 μm thick) that separated the top and the receiving chambers was isolated from the anterior or posterior thigh areas.
A compound tested (0.5 mL, 3% in a mixture of ethanol and phosphate buffer (0.2M, pH 7.4) (v/v, 70/30)) was added to the sample chamber of a Franz cell. The receiving chamber contains 2 ml of 2% bovine serum albumin in saline which was stirred at 600 rpm. The amount of the tested compound penetrating the skin was determined by high-performance liquid chromatography (HPLC) method.
The lowest detectable apparent flux values in this method was 1 μg/cm^2/h.

[2] = Irritative effect or discomfort on skin of nude mice after topical application; format: in vivo; settings: 0.1 ml of 3% in pH 7.4 phosphate buffer, back of nude mice, twice per day, 1 week
Experimental: Irritative effect or discomfort in the skin of mice of HPPs of 1H-imidazo[4,5-c]quinolin-4-amines or 1H-imidazo[4,5-c]quinolin-4-amine-related compounds was evaluated during a period of 1 week after the topical application of 0.1 ml of 3% of the respective test drug in pH 7.4 phosphate buffer (0.2 M) to the back of nude mice twice per day.

[3] = Conversion of HPPs to parent drugs in human plasma (half life); format: in vitro ADME; settings: 37° C.
Experimental: HPPs of 1H-imidazo[4,5-c]quinolin-4-amines or 1H-imidazo[4,5-c]quinolin-4-amine-related compounds converted to the parent 1H-imidazo[4,5-c]quinolin-4-amines or 1H-imidazo[4,5-c]quinolin-4-amine-related compounds quickly in good yield in human plasma.
A HPP of 1H-imidazo[4,5-c]quinolin-4-amines or 1H-imidazo[4,5-c]quinolin-4-amine-related compound (0.05 mg) was dissolved in 0.1 ml of 0.2M pH 7.4 phosphate buffer. 1 ml of human plasma, preheated to 37° C., was added into the mixture. The mixture was kept in a water bath at 37° C., and at every 10 min intervals 0.2 ml of samples were withdrawn and added to 0.4 ml of methanol to precipitate the plasma protein. The samples were centrifuged for 5 min and analyzed by HPLC.

[4] = system: Human breast cancer cells (BCAP-37); experiment: Antitumor activity, breast cancer xenograft, topical treatment from day 1; settings: 50 μl of 3% topically once per day from day 1; after 28 days
Description: Human breast cancer cells (BCAP-37, 4-5 mm^3 of tumor tissue was used in each mouse) were subcutaneous xenografted into nude mice (BALB).

[5] = system: Human colon cancer cells (LS174J); experiment: Antitumor activity, colon cancer xenograft, topical treatment from day 1; settings: 50 μl of 3% topically twice per day from day 1; after 28 days
Description: Human colon cancer cells (LS174J, 4-5 mm^3 of tumor tissue was used in each mouse) were subcutaneously xenografted into nude mice (BALB).

[6] = system: Human breast cancer cells (BCAP-37)
Description: Human breast cancer cells (BCAP-37, 3-4 mm^3 of tumor tissue was used in each mouse) were subcutaneously xenografted into nude mice (BALB).

[7] = system: interferon production; experiment: Interferon inducing activity in guinea pigs (serum protection of fibroblasts from mengovirus); format: in vivo; settings: serum 18 hours after treatment
Experimental: Without being bound by any mechanism, the ability to induce interferon production of the pro-drugs of the invention was evaluated in guinea pigs (n=10). Untreated guinea pigs provided controls.
Each test drug was administered to real back skin of a guinea pig at a specific dose of about 0.5-4.5 mg/kg respectively.
Each treated and control guinea pig was bled 18 hours after drug treatment and its serum was assayed for interferon activity. The serum was diluted and incubated with guinea pig fibroblast cells at 37° C. overnight in 96 well microtiter plates. The incubated cells were then challenged with an inoculum of mengovirus that was sufficient to kill untreated cells in two days. Two days after such challenge, the cells were examined both microscopically and after staining with crystal violet to determine whether the cells remained intact.
Table 4 contains the results of the study with activity/ml indicating the highest dilute on of serum that protected cells from virus challenge. Untreated guinea pigs provided controls.

[8] = system: herpes simplex virus Type II; experiment: Anti-Herpes activity, treated for 3 days before HSV infection; format: in vivo; settings: guinea pigs
Experimental: (§1) The evaluation of anti-Herpes activity of these prodrugs was carried out using the method described by Kern, et al. [Antimicrob. Agents Chemother. 14, 817, (1978)]. In each experiment, female guinea pigs (n=10) were anesthetized. […] Virus replication was monitored by determining the amount of virus recovered with vaginal swabs taken on day 7 after infection. […] The percent Lesion Inhibition was calculated as follows: 100-[(Sum of maximum lesion scores of treated group divided by the Sum of the scores of infected control)×100] (Table 5).

[9] = system: herpes simplex virus Type I; experiment: as above; format: in vivo; settings: guinea pigs
Experimental: as §1

[10] = system: herpes simplex virus Type II; experiment: Anti-Herpes activity, treated for 5 days, first treatment just after HSV infection; format: in vivo; settings: guinea pigs
Experimental: (§2) The evaluation of anti-Herpes activity of these prodrugs was carried out using the method described by Kern, et al. [Antimicrob. Agents Chemother. 14, 817, (1978)].
(§3) In the second experiment, female guinea pigs (n=10) were anesthetized. Herpes simplex virus (Type I or Type II, about 10^5 plaque forming units were used) was applied intravaginally to the guinea pigs using a cotton swab. […] Virus replication was monitored by determining the amount of virus recovered with vaginal swabs taken on day 7 after infection. External lesions were scored daily for ten days using the following scale: 0, no lesion; 1, redness and swelling; 2, a few small vesicles; 3, several large vesicles; 4, large ulcers and necrosis; and 5, paralysis. The percent Lesion Inhibition was calculated as follows: 100−[(Sum of maximum lesion scores of treated group divided by the Sum of the scores of infected control)×100] (Table 6).

[11] = system: herpes simplex virus Type I; experiment: as above; format: in vivo; settings: guinea pigs
Experimental: as §2, §3

[12] = system: herpes simplex virus Type II; experiment: Anti-Herpes activity, treated for 5 days, first treatment 5 days after HSV infection; format: in vivo; settings: guinea pigs
Experimental: as §2
(§4) In the third experiment, female guinea pigs (n=10) were anesthetized. The guinea pigs were then infected with herpes simplex virus (type I or Type II, about 10^5 plaque forming units were used) intravaginally using a cotton swab. […] External lesions were scored daily for ten days using the following scale: 0, no lesion; 1, redness and swelling; 2, a few small vesicles; 3, several large vesicles; 4, large ulcers and necrosis; and 5, paralysis. The percent Lesion Inhibition was calculated as follows: 100−[(Sum of maximum lesion scores of treated group divided by the Sum of the scores of infected control)×100] (Table 7).

[13] = system: herpes simplex virus Type I; experiment: as above; format: in vivo; settings: guinea pigs
Experimental: as §2, §4

[14] = system: interferon production; experiment: Interferon inducing activity in guinea pigs (serum protection of fibroblasts from mengovirus); format: in vivo; settings: serum 18 hours after treatment; remark: listed apart in the source
[15] = at day 42, treatment from day 21 (tumors 13±2 mm×12±3 mm), 50 μl of 3% topically once per day
[16] = 0.5 mg/kg once per day for 3 days before HSV infection
[17] = 1.5 mg/kg once per day for 3 days before HSV infection
[18] = 4.5 mg/kg once per day for 3 days before HSV infection
[19] = 0.5 mg/kg once per day for 5 days
[20] = 1.5 mg/kg once per day for 5 days
[21] = 4.5 mg/kg once per day for 5 days

## CNCC(=O)Nc1nc2ccccc2c2c1ncn2CC(C)C.Cl [sarcosine 1-isobutyl-1H-imidazo[4,5-c]quinolin-4-amide hydrochloride]
[1]
  In vitro Penetration Rate of HPPs (apparent flux): 0.15 mg/cm^2/h
[2]
  signs of irritative effect or discomfort in the skin: None of any signs of irritative effect or discomfort was observed
[3]
  Half life of HPPs in plasma: 27 ± 1 min
[4]
  Tumor size, Human breast cancer, first dimension: None
  tumor incidence, human breast cancer: no tumor was seen
[5]
  Tumor size, Human colon cancer, first dimension: None
  tumor incidence, human colon cancer: no tumor was seen
[6]; [15]
  tumor size, first dimension: 11±2 mm
  tumor size, second dimension: 10±2 mm
[6]; up to day 70, 50 μl of 3% topically once per day from day 21
  death of mice: none of mice died at day 70
[7]; 0.5 mg/kg once
  Interferon level of the HPP, transdermal: 8,676 activity/ml
[7]; 1.5 mg/kg once
  Interferon level of the HPP, transdermal: 16,784 activity/ml
[7]; 4.5 mg/kg once
  Interferon level of the HPP, transdermal: 57,235 activity/ml
[8]; [16]
  % Lesion inhibition of the HPP, intravaginal, Herpes type II: 75%
  % Lesion inhibition of the HPP, transdermal, Herpes type II: 51%
[8]; [17]
  % Lesion inhibition of the HPP, intravaginal, Herpes type II: 90%
  % Lesion inhibition of the HPP, transdermal, Herpes type II: 73%
[8]; [18]
  % Lesion inhibition of the HPP, intravaginal, Herpes type II: 96%
  % Lesion inhibition of the HPP, transdermal, Herpes type II: 90%
[9]; [16]
  % Lesion inhibition of the HPP, intravaginal, Herpes type I: 71%
  % Lesion inhibition of the HPP, transdermal, Herpes type I: 45%
[9]; [17]
  % Lesion inhibition of the HPP, intravaginal, Herpes type I: 93%
  % Lesion inhibition of the HPP, transdermal, Herpes type I: 72%
[9]; [18]
  % Lesion inhibition of the HPP, intravaginal, Herpes type I: 95%
  % Lesion inhibition of the HPP, transdermal, Herpes type I: 91%
[10]; [19]
  % Lesion inhibition of the HPP, intravaginal, Herpes type II: 56%
  % Lesion inhibition of the HPP, transdermal, Herpes type II: 49%
[10]; [20]
  % Lesion inhibition of the HPP, intravaginal, Herpes type II: 90%
  % Lesion inhibition of the HPP, transdermal, Herpes type II: 80%
[10]; [21]
  % Lesion inhibition of the HPP, intravaginal, Herpes type II: 96%
  % Lesion inhibition of the HPP, transdermal, Herpes type II: 93%
[11]; [19]
  % Lesion inhibition of the HPP, intravaginal, Herpes type I: 57%
  % Lesion inhibition of the HPP, transdermal, Herpes type I: 47%
[11]; [20]
  % Lesion inhibition of the HPP, intravaginal, Herpes type I: 87%
  % Lesion inhibition of the HPP, transdermal, Herpes type I: 77%
[11]; [21]
  % Lesion inhibition of the HPP, intravaginal, Herpes type I: 95%
  % Lesion inhibition of the HPP, transdermal, Herpes type I: 91%
[12]; [19]
  % Lesion inhibition of the HPP, intravaginal, Herpes type II: 38%
  % Lesion inhibition of the HPP, transdermal, Herpes type II: 38%
[12]; [20]
  % Lesion inhibition of the HPP, intravaginal, Herpes type II: 70%
  % Lesion inhibition of the HPP, transdermal, Herpes type II: 58%
[12]; [21]
  % Lesion inhibition of the HPP, intravaginal, Herpes type II: 90%
  % Lesion inhibition of the HPP, transdermal, Herpes type II: 88%
[13]; [19]
  % Lesion inhibition of the HPP, intravaginal, Herpes type I: 37%
  % Lesion inhibition of the HPP, transdermal, Herpes type I: 37%
[13]; [20]
  % Lesion inhibition of the HPP, intravaginal, Herpes type I: 68%
  % Lesion inhibition of the HPP, transdermal, Herpes type I: 57%
[13]; [21]
  % Lesion inhibition of the HPP, intravaginal, Herpes type I: 88%
  % Lesion inhibition of the HPP, transdermal, Herpes type I: 89%
[14]; 0.5 mg/kg once
  Interferon level of the HPP, intravaginal: 23,647 activity/ml
[14]; 1.5 mg/kg once
  Interferon level of the HPP, intravaginal: 56,735 activity/ml
[14]; 4.5 mg/kg once
  Interferon level of the HPP, intravaginal: 87,795 activity/ml
